This note sets out measurements from patent US20250195513A1, “DEGRADATION OF IRAK4 BY CONJUGATION OF IRAK4 INHIBITORS WITH E3 LIGASE LIGAND AND METHODS OF USE” (BeiGene, Ltd., priority 2022, published 2025).

For orientation: Dmax means the greatest extent of degradation seen. The term DC50 denotes the midpoint of the concentration-degradation curve.

Read-outs that look alike come from different tables or passages of the source.

The test addresses T1, IRAK4 (Homo sapiens, UniProt Q9NWZ3).
T1 construct: endogenous in cells; host or cells: Karpas299
T1 sequence (Q9NWZ3 1-460): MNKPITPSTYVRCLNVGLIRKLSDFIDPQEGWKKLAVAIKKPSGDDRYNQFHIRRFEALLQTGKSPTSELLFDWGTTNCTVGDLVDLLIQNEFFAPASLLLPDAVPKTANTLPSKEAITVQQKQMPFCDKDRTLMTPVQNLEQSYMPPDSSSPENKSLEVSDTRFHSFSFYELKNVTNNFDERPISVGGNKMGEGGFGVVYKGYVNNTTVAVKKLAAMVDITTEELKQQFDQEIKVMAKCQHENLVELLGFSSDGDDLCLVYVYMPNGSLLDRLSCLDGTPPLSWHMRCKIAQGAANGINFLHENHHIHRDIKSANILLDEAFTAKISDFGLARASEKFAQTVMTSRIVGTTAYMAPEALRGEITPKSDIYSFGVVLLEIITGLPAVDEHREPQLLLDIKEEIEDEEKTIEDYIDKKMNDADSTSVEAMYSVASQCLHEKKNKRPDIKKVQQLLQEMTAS
As to the kind of experiment: IRAK4 Degradation Assay (Karpas299, HTRF/TR-FRET). The test is classed as cell-based. The following applies: Karpas-299 cells; for Dmax: maximum percentage of degradation. The procedure, abridged: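 Karpas299 cells at 0.2 million per well were exposed to serially diluted compounds for 24 h or 5 h, then lysed. IRAK4 remaining in lysates was quantified by HTRF (665/620 nm) after overnight antibody incubation at room temperature. Percent degradation was fitted to a four-parameter curve to give IC50 (DC50).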
A general note: TR-FRET usually uses a lanthanide donor and a delayed reading to cut background.

Where [1] appears, read: 24 h treatment, read-out: IRAK4 in Karpas-299 (24 h) Dmax (%).
The mark [2] stands for this setting: 24 h treatment, read-out: IRAK4 in Karpas-299 (24 h) DC50.
[3] abbreviates: 5 h treatment, read-out: IRAK4 in Karpas-299 (5 h) Dmax (%).
[4] abbreviates: 5 h treatment, read-out: IRAK4 in Karpas-299 (5 h) DC50.

In the case of `NC(=O)c1nn(-c2ccc(N3CCN(C(=O)C4CN(c5ccc(N6CCC(=O)NC6=O)cc5)C4)CC3)nc2)cc1NC(=O)c1coc(-c2ccnc(NCC(F)(F)F)c2)n1` [Example 28, N-(3-carbamoyl-1-(6-(4-(1-(4-(2,4-dioxotetrahydropyrimidin-1(2H)-yl)phenyl)azetidine-3-carbonyl)piperazin-1-yl)pyridin-3-yl)-1H-pyrazol-4-yl)-2-(2-((2,2,2-trifluoroethyl)amino)pyridin-4-yl)oxazole-4-carboxamide], the Dmax under setting [1] was found to be 96%. Moreover, the 50% degradation concentration (DC50) under setting [2] was 2.5 nM.

For `CC(C)(O)c1cc2nn([C@H]3CC[C@H](CN4CCN(C5CN(c6cc(F)c([C@H]7CCC(=O)NC7=O)c(F)c6)C5)CC4)CC3)cc2cc1NC(=O)c1csc(-c2cn[nH]c2)n1` [Example 433, N-(2-((1r,4r)-4-((4-(1-(4-((R)-2,6-dioxopiperidin-3-yl)-3,5-difluorophenyl)azetidin-3-yl)piperazin-1-yl)methyl)cyclohexyl)-6-(2-hydroxypropan-2-yl)-2H-indazol-5-yl)-2-(1H-pyrazol-4-yl)thiazole-4-carboxamide], the Dmax under setting [1] is 99%. For the same compound, the DC50 under setting [2] amounted to 0.2 nM.

As to `O=C1CCN(c2c(F)cc(N3CC(C(=O)N4CCN([C@H]5CC[C@H](n6cc(NC(=O)c7coc(-c8ccnc(NCC(F)(F)F)c8)n7)c(C(F)F)n6)CC5)CC4)C3)cc2F)C(=O)N1` [Example 76, N-(3-(difluoromethyl)-1-((1r,4r)-4-(4-(1-(4-(2,4-dioxotetrahydropyrimidin-1(2H)-yl)-3,5-difluorophenyl)azetidine-3-carbonyl)piperazin-1-yl)cyclohexyl)-1H-pyrazol-4-yl)-2-(2-((2,2,2-trifluoroethyl)amino)pyridin-4-yl)oxazole-4-carboxamide], the Dmax under setting [1] was 97%. Besides, the 50% degradation concentration (DC50) under setting [2] turned out to be 3.2 nM.

In the case of `CC(C)(O)c1cc2nn([C@H]3CC[C@H](N4CCN(C(=O)C5CCN(c6cc(F)c([C@H]7CCC(=O)NC7=O)c(F)c6)CC5)CC4)CC3)cc2cc1NC(=O)c1cccc(C(F)(F)F)n1` [Example 47, N-(2-((1r,4r)-4-(4-(1-(4-((R)-2,6-dioxopiperidin-3-yl)-3,5-difluorophenyl)piperidine-4-carbonyl)piperazin-1-yl)cyclohexyl)-6-(2-hydroxypropan-2-yl)-2H-indazol-5-yl)-6-(trifluoromethyl)picolinamide], the maximal degradation (Dmax) under setting [1] amounted to 98%. Further, the 50% degradation concentration (DC50) under setting [2] was determined as 0.6 nM.

For `CC(C)(O)c1cc2nn(C3CCN(C4CCN(C(=O)[C@@H]5CCN(c6ccc(N7CCC(=O)NC7=O)cc6)C5)CC4)CC3)cc2cc1NC(=O)c1cccc(C(F)(F)F)n1` [Example 162, (R)—N-(2-(1′-(1-(4-(2,4-dioxotetrahydropyrimidin-1(2H)-yl)phenyl)pyrrolidine-3-carbonyl)-[1,4′-bipiperidin]-4-yl)-6-(2-hydroxypropan-2-yl)-2H-indazol-5-yl)-6-(trifluoromethyl)picolinamide], the maximal degradation (Dmax) under setting [1] was 96%. The DC50 under setting [2] stood at 5.7 nM.

On to `CC1(C)CN(c2cc(F)c([C@H]3CCC(=O)NC3=O)c(F)c2)C[C@@H]1C(=O)N1CCN([C@H]2CC[C@H](n3cc(NC(=O)c4coc(-c5ccnc(NCC(F)(F)F)c5)n4)c(C(F)F)n3)CC2)CC1` [Example 18, N-(3-(difluoromethyl)-1-((1R,4r)-4-(4-((R)-1-(4-((R)-2,6-dioxopiperidin-3-yl)-3,5-difluorophenyl)-4,4-dimethylpyrrolidine-3-carbonyl)piperazin-1-yl)cyclohexyl)-1H-pyrazol-4-yl)-2-(2-((2,2,2-trifluoroethyl)amino)pyridin-4-yl)oxazole-4-carboxamide], for which the Dmax under setting [3] amounted to 95% and the Dmax under setting [1] was 97%. Further, the DC50 was determined as 100 nM under setting [4] and 9.7 nM under setting [2].

Consider `CC(C)(O)c1cc2nn([C@H]3CC[C@H](N4CCN(C(=O)N5CCN(c6cc(F)c([C@H]7CCC(=O)NC7=O)c(F)c6)CC5)CC4)CC3)cc2cc1NC(=O)c1ccc2cc(C#N)cnn12` [Example 225, 3-cyano-N-(2-((1r,4r)-4-(4-(4-(4-((R)-2,6-dioxopiperidin-3-yl)-3,5-difluorophenyl)piperazine-1-carbonyl)piperazin-1-yl)cyclohexyl)-6-(2-hydroxypropan-2-yl)-2H-indazol-5-yl)pyrrolo[1,2-b]pyridazine-7-carboxamide], for which the Dmax under setting [1] was found to be 97%. Further, the DC50 under setting [2] was 1 nM.

`O=C1CCN(c2ccc(N3CC(C(=O)N4CCN([C@H]5CC[C@H](n6cc(NC(=O)c7coc(-c8ccnc(NCC(F)(F)F)c8)n7)c(C(F)F)n6)CC5)CC4)C3)cc2)C(=O)N1` [Example 13, N-(3-(difluoromethyl)-1-((1r,4r)-4-(4-(1-(4-(2,4-dioxotetrahydropyrimidin-1(2H)-yl)phenyl)azetidine-3-carbonyl)piperazin-1-yl)cyclohexyl)-1H-pyrazol-4-yl)-2-(2-((2,2,2-trifluoroethyl)amino)pyridin-4-yl)oxazole-4-carboxamide]: the maximal degradation (Dmax) worked out at 84% under setting [3] and 94% under setting [1]. Further, the DC50 runs as follows: under setting [4], 7.5 nM; under setting [2], 2.7 nM.

For the compound `CCC(C)c1cc(-c2nc(C(=O)Nc3cn([C@H]4CC[C@H](N5CCN(C(=O)[C@@H]6CCN(c7cc(F)c([C@H]8CCC(=O)NC8=O)c(F)c7)C6)CC5)CC4)nc3C(F)F)co2)ccn1` (stereo partly drawn) [Example 170, 2-(2-(sec-butyl)pyridin-4-yl)-N-(3-(difluoromethyl)-1-((1R,4r)-4-(4-((R)-1-(4-((R)-2,6-dioxopiperidin-3-yl)-3,5-difluorophenyl)pyrrolidine-3-carbonyl)piperazin-1-yl)cyclohexyl)-1H-pyrazol-4-yl)oxazole-4-carboxamide], the maximal degradation (Dmax) under setting [1] was 96%. For the same compound, under setting [2], the DC50 was determined as 6.8 nM.

Regarding `Cc1cc(-c2nc(C(=O)Nc3cn(-c4ccc(N5CCN(C(=O)[C@@H]6CCN(c7cc(F)c([C@H]8CCC(=O)NC8=O)c(F)c7)C6)CC5)nc4)nc3C(N)=O)co2)ccn1` [Example 30, N-(3-carbamoyl-1-(6-(4-((R)-1-(4-((R)-2,6-dioxopiperidin-3-yl)-3,5-difluorophenyl)pyrrolidine-3-carbonyl)piperazin-1-yl)pyridin-3-yl)-1H-pyrazol-4-yl)-2-(2-methylpyridin-4-yl)oxazole-4-carboxamide], the maximal degradation (Dmax) is, setting by setting: under setting [3], 76%; under setting [1], 95%. Also, the half-maximal degradation concentration (DC50) is, setting by setting: under setting [4], 5.3 nM; under setting [2], 3.2 nM.

Take `CC(C)(O)c1cc2nn([C@H]3CC[C@H](N4CCN(c5ccc(CCC(=O)NC6CCC(=O)NC6=O)cc5)CC4)CC3)cc2cc1NC(=O)c1ccc2cc(C#N)cnn12` (stereo partly shown) [Example 440, 3-cyano-N-(2-((1r,4r)-4-(4-(4-(3-((2,6-dioxopiperidin-3-yl)amino)-3-oxopropyl)phenyl)piperazin-1-yl)cyclohexyl)-6-(2-hydroxypropan-2-yl)-2H-indazol-5-yl)pyrrolo[1,2-b]pyridazine-7-carboxamide]: the Dmax under setting [1] came to 80%. For the same compound, the DC50 under setting [2] worked out at 183 nM.
